Like-named read-outs stand apart in the source and are kept apart here.
Columns and labels:
M4 muscarinic receptor = target: T1, M4 muscarinic receptor (Homo sapiens, UniProt P08173); assay: Functional mobilization of intracellular calcium (FLIPR, Fluo-3), M4-CHO cells; type: cell-based; conditions: for Emax: 100% efficacy is the maximum response obtained with the Carbachol control, read-out: M4 Efficacy
T1 construct: expressed in transfected cells; host or cells: CHO cells (M4-CHO, under puromycin, zeocin and blasticidin selection)
T1 sequence (P08173 1-479): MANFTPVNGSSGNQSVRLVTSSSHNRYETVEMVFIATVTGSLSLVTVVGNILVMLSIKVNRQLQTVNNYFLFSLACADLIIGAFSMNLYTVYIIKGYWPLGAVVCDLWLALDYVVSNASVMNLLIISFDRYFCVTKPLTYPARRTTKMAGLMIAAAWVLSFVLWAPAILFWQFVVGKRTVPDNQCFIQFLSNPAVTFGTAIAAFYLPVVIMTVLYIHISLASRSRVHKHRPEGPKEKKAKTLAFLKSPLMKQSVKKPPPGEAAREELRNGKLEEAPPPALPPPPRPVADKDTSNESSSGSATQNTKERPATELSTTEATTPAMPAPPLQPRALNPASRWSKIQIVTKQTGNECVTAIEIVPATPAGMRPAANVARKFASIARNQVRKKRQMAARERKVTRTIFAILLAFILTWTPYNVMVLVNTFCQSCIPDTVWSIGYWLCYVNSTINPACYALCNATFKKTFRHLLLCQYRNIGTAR
Summary of the method: (§1)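 CHO lines stably carrying the muscarinic subtype, dye-loaded with Fluo-3 at 37° C for 60-90 min, receive test compound in 0.5% DMSO. Agonist effects are read directly; antagonist effects against carbachol at EC80 after 15 min pre-incubation.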

M1 muscarinic receptor = target: T2, M1 muscarinic receptor (Homo sapiens, UniProt P11229); assay: Functional mobilization of intracellular calcium (FLIPR, Fluo-3), M1-CHO cells; type: cell-based; conditions: for Emax: 100% efficacy is the maximum response obtained with the Carbachol control, read-out: M1 Efficacy
T2 construct: expressed in transfected cells; host or cells: CHO cells (M1-CHO, under zeocin and G418 selection)
T2 sequence (P11229 1-460): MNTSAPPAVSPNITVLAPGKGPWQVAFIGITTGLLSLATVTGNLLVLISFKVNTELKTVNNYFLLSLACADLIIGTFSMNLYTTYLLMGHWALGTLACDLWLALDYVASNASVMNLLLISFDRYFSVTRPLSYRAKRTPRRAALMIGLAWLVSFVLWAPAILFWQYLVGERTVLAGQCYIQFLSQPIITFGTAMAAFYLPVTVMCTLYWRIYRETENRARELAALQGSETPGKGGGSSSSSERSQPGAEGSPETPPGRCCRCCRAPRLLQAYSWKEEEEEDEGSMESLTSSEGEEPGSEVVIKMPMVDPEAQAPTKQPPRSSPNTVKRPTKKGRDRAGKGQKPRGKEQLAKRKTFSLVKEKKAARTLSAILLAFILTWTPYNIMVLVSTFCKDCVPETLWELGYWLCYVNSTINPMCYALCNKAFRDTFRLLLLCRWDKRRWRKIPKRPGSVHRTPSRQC
Summary of the method: as §1

[1] = compound nos. 1-454, M4-CHO cells, calcium mobilization
[2] = compound nos. 1-454, M1-CHO cells, calcium mobilization

SMILES | M4 Activity (M4 muscarinic receptor; compound nos. 1-454) | Emax (M4 muscarinic receptor; compound nos. 1-454) | M1 Activity (M1 muscarinic receptor; compound nos. 1-454) | Emax (M1 muscarinic receptor; compound nos. 1-454) | M4 Activity (M4 muscarinic receptor; [1]) | M1 Activity (M1 muscarinic receptor; [2]) | Emax (M4 muscarinic receptor; compound nos. 455-509) | M4 Activity (M4 muscarinic receptor; compounds 455-509) | Emax (M1 muscarinic receptor; compound nos. 455-509) | M1 Activity (M1 muscarinic receptor; compounds 455-509)
CCOC(=O)N1CCC(N2CCC3(CC2)CN(C(=O)c2ccc4c(c2)OCO4)c2ccc(F)cc23)CC1 [compound 401] | + (activity was measured to be greater than or equal to 4.0 μM) | < 55% | +++ (activity was measured to be less than or equal to 0.7 μM) | 65 to 85% | – | – | – | – | – | –
CCOC(=O)N1CCC(N2CCC3(CC2)CN(C(C)=O)c2ccc(Cl)cc23)CC1 [compound 141] | – | > 70% | – | > 85% | ++ (activity was measured to be between 0.1 μM and 4.0 μM) | +++ (activity was measured to be less than or equal to 0.7 μM) | – | – | – | –
CCOC(=O)N1CCC(N2CCC3(CC2)CN(C(C)=O)c2ccc(-c4ccncc4)cc23)CC1 [compound 105] | – | < 55% | – | < 65% | + (activity was measured to be greater than or equal to 4.0 μM) | ++ (activity was measured to be between 0.7 μM and 3.0 μM) | – | – | – | –
CCOC(=O)N1C2CCC1CC(N1CCC3(CC1)CNc1ccc(Cl)cc13)C2 (centres unmarked) [compound 351] | – | > 70% | – | 65 to 85% | ++ (activity was measured to be between 0.1 μM and 4.0 μM) | +++ (activity was measured to be less than or equal to 0.7 μM) | – | – | – | –
Cc1nsc(N2CCC(N3CCC4(CC3)CN(C(=O)N(C)C)c3ccccc34)CC2)n1 [compound 458] | – | – | – | – | – | – | > 100% | ++ (activity was measured to be between 2.0 μM and 5.0 μM) | > 100% | +++ (activity was measured to be less than or equal to 2.0 μM)
CC(=O)N1CCC2(CCN(C3CCN(c4nc(C)ns4)CC3)CC2)c2ccccc21 [compound 492] | – | – | – | – | – | – | 25 to 100% | ++ (activity was measured to be between 2.0 μM and 5.0 μM) | > 100% | +++ (activity was measured to be less than or equal to 2.0 μM)
CC(=O)N1CC2(CCN(C3CCCCCC3)CC2)c2cc(F)ccc21 [compound 210] | – | < 55% | – | 65 to 85% | + (activity was measured to be greater than or equal to 4.0 μM) | ++ (activity was measured to be between 0.7 μM and 3.0 μM) | – | – | – | –
CCOC(=O)N1CCC(CN2CCC3(CC2)C(=O)N(C)c2ccccc23)CC1 [compound 327] | – | < 55% | – | < 65% | + (activity was measured to be greater than or equal to 4.0 μM) | + (activity was measured to be greater than or equal to 3.0 μM) | – | – | – | –
c1ccc2c(c1)NCC21CCN(C2CCC3CCC2C3)CC1 (centres unmarked) [compound 244] | – | 55 to 70% | – | 65 to 85% | + (activity was measured to be greater than or equal to 4.0 μM) | ++ (activity was measured to be between 0.7 μM and 3.0 μM) | – | – | – | –
CC(=O)N[C@@H]1CC2(CCN([C@@H]3C[C@@H]4CC[C@@H]3C4)CC2)c2ccccc21 [compound 323] | – | 55 to 70% | – | 65 to 85% | + (activity was measured to be greater than or equal to 4.0 μM) | ++ (activity was measured to be between 0.7 μM and 3.0 μM) | – | – | – | –
CN(C)C(=O)N1CC2(CCN(C3CCN(C(=O)O[C@H]4CCOC4)CC3)CC2)c2cc(F)ccc21 [compound 120] | – | < 55% | – | < 65% | + (activity was measured to be greater than or equal to 4.0 μM) | ++ (activity was measured to be between 0.7 μM and 3.0 μM) | – | – | – | –
Clc1ccc2c(c1)C1(CCN([C@H]3C[C@@H]4CC[C@H]3C4)CC1)CO2 [compound 181] | – | 55 to 70% | – | 65 to 85% | + (activity was measured to be greater than or equal to 4.0 μM) | ++ (activity was measured to be between 0.7 μM and 3.0 μM) | – | – | – | –
CCOC(=O)N1CCC(N2CCC3(CC2)CN(C(C)=O)c2ccc(-c4ccccc4OC)cc23)CC1 [compound 150] | – | > 70% | – | 65 to 85% | + (activity was measured to be greater than or equal to 4.0 μM) | +++ (activity was measured to be less than or equal to 0.7 μM) | – | – | – | –
Clc1ccc2c(c1)C1(CCO2)CCN(CC2CCOCC2)CC1 [compound 288] | – | < 55% | – | < 65% | + (activity was measured to be greater than or equal to 4.0 μM) | + (activity was measured to be greater than or equal to 3.0 μM) | – | – | – | –
O=C(OCC(F)(F)F)N1C2CCC1CC(N1CCC3(CC1)COc1ccc(F)cc13)C2 (centres unmarked) [compound 124] | – | < 55% | – | < 65% | ++ (activity was measured to be between 0.1 μM and 4.0 μM) | +++ (activity was measured to be less than or equal to 0.7 μM) | – | – | – | –
CC(=O)N1CC2(CCN(CC3CCCOC3)CC2)c2cc(F)ccc21 (centres unmarked) [compound 75] | – | 55 to 70% | – | < 65% | ++ (activity was measured to be between 0.1 μM and 4.0 μM) | +++ (activity was measured to be less than or equal to 0.7 μM) | – | – | – | –
O=C(C1CCC1)N1CC2(CCN(C3CC4CCC(C3)N4C(=O)O[C@@H]3CCOC3)CC2)c2cc(F)ccc21 (some centres unmarked) [compound 69] | – | < 55% | – | < 65% | ++ (activity was measured to be between 0.1 μM and 4.0 μM) | ++ (activity was measured to be between 0.7 μM and 3.0 μM) | – | – | – | –
CCOC(=O)N1CCC(N2CCC3(CC2)CN(C(C)=O)c2ccc(-c4ccc(OC)cc4)cc23)CC1 [compound 193] | – | < 55% | – | < 65% | + (activity was measured to be greater than or equal to 4.0 μM) | + (activity was measured to be greater than or equal to 3.0 μM) | – | – | – | –
CCOC(=O)N1C2CCC1CC(N1CCC3(CC1)CN(C(=O)c1ccc(F)cc1)c1ccc(F)cc13)C2 (centres unmarked) [compound 222] | – | < 55% | – | < 65% | + (activity was measured to be greater than or equal to 4.0 μM) | + (activity was measured to be greater than or equal to 3.0 μM) | – | – | – | –
CCOC(=O)N1CCC(N2CCC3(CC2)CN(C(C)=O)c2ccc(-c4ccc(NC(C)=O)cc4)cc23)CC1 [compound 10] | – | 55 to 70% | – | 65 to 85% | ++ (activity was measured to be between 0.1 μM and 4.0 μM) | ++ (activity was measured to be between 0.7 μM and 3.0 μM) | – | – | – | –

From patent publication US7858635B2 (priority 2005, dated 2010)
